How the values were obtained:
CIITA mRNA = CIITA mRNA by RT-PCR and real-time PCR in mouse tumor cells Colon 26 and J558; type: cell-based; conditions: for CIITA fold increase / expression of CIITA: Colon 26; for CIITA fold increase: real-time PCR; for expression of CIITA: standard RT-PCR at 35 cycles; for CIITA mRNA activation: titration with different concentrations of TSA for 12 hours, RT-PCR and real-time PCR
Procedure: To determine the effect of DAIs on HLA-DRα mRNA, cytoplasmic RNA was isolated from untreated and treated human trophoblast cell line JAR using standard techniques (RNeasy System from Qiagen). Standard PCR was performed using primers for DR and CIITA (Murphy et al., 1998, Reprod Dev., Chin et al., 1994, Immunity 1:687-697). Other primers used included human and mouse GAPDH (Clontech) and forward primer 5′-[…]-3′ (SEQ ID NO:25) and reverse primer 5′-[…]-3′ (SEQ ID NO:26) for mouse CIITA. PCR products were amplified with GOLD Taq for 10 min at 95° C., then 95° C. for 30 sec, 60° C. for 60 sec (25-45 cycles), then an extension at 60° C. for 10 min.
In order to obtain more quantitative information on fold changes in DR and CIITA after treatment with the deacetylase inhibitors, a real time fluorescence technique capable of quantitating low copy numbers of transcripts was carried out as follows. Oligonucleotide primers and TaqMan 5′-6-FAM and 3′-TAMRA-labeled probes were synthesized in the RPCI Biopolymer Facility. Primer and probe sequences are listed under Sequence Listing and also in FIG. 9. Sequences were designed using standard software (PrimerExpress software, PE Biosystems) except for human GAPDH.
Realtime PCR reactions contained TaqMan Universal PCR Master Mix (PE Biosystems), primers at 300 nM, and probes at optimal concentrations (150-225 nM depending on gene). Reactions were carried out on an ABI PRISM 7700 Sequence Detection System (PE Biosystems). Cycling conditions were 50° C. for 2 min, 95° C. for 10 min, then 60 cycles of 95° C. for 15 sec, 60° C. for 1 min. PCR samples were run in triplicate. The detection system and quantitative PCR was carried out as described by Williamson et al. (1995, Genet Res. 65:83-93). The threshold cycle number CT corresponded to the cycle number, at which the fluorescent emission reaches 10 standard deviations above the mean fluorescent emission, measured during the early ‘baseline’ cycles of the PCR. The CT values for triplicates were averaged and normalized to GAPDH levels. […] In such cases, in order to calculate a minimum fold change for other samples in the same group, the CT value was arbitrarily set at 40. […] Assuming reverse transcription efficiencies were approximately the same for each sample, relative amounts of mRNA using the comparative CT method. Fold changes in mRNA levels were calculated as 2^x where x=the difference between normalized CT values of the control and experimental samples.
To determine if the effect of DAIs on MHC class II was manifested in other tumors and in different species, the effect of TSA was tested on four commonly used mouse tumor models: the SaI fibrosarcoma, the Colon 26 adenocarcinoma, the J558 plasmacytoma and the P815 mastocytoma. TSA induced class II in all four mouse tumors examined, while the effects of IFNγ were variable (FIG. 4). Data presented for each cell line represents optimal incubation time and concentration of TSA and is compared with 100 U/ml of IFNγ at the same time point. Numbers over bars represents fold changes. […] Colon 26 and J558 that differed strikingly in their reactivity to IFNγ were selected for further evaluation. RT-PCR and real time PCR was used to examine induction of CIITA and IAα by TSA and IFNγ. A20, a constitutively positive B cell line was used as a positive control. The results are shown in FIGS. 5A-D. The numbers over bars represent fold changes. […] Since the classical IFNγ inducible genes IRF-1 and GBP as well as MHC class I mRNA were not induced by IFNγ in J558 (data not shown), this cell line may have a signaling defect in the IFNγ pathway. Unexpectedly however, and unlike either the MC or Colon 26 cells, TSA induced both CIITA (102-fold) and Iα (537-fold) in J558 as shown in FIGS. 5B and 5D.

[1] = test system: MHC class II protein on the cell surface; assay: Cell surface MHC class II protein by flow cytometry on SK-N-MC; type: cell-based, human; conditions: for expression of MHC class II protein on the cell surface: flow cytometry, 50 nM TSA for 48 hours, IFNγ 100 U/ml same time
J558 cells = assay: Other cell surface markers by flow cytometry on J558 cells; type: cell-based, mouse; conditions: TSA treatment
Procedure: To determine the effect of TSA on cell surface protein expression, the J558 cell line was subjected to flow cytometric analyses as follows. Flow cytometric analyses were conducted by standard methods using cells fixed with 1.0% paraformaldehyde and analyzed on the FACScan (Becton Dickinson). Cell cycle analyses were carried out by flow cytometry with PI staining of genomic DNA. Cells were fixed and permeablized in methanol, treated with RNaseA and analyzed for DNA content by determination of FL3-area on the FACScan. The FL3-area data were analyzed with the ModFit software for determination of the percent cells in each phase of the cell cycle. In some cases, fluorescein isothiocyanate (FITC)-conjugated antibody staining was conducted prior to PI treatment and surface staining was analyzed as a function of cell cycle phase. Apoptosis was analyzed by staining with annexin-V directly conjugated with either FITC or RPE and by sub-G0 analysis of DNA staining. […] Isotype controls were analyzed and, in each case, fell on or below the levels shown for control cells. […] Since all cells were positive for MHC class I expression, the number under the histogram represents -fold change of expression calculated from the mean channel-shift after treatment relative to untreated cells. […]

cell lines employed = assay: Toxicity of deacetylase inhibitors (lift-off, trypan-blue dye exclusion, laddering, PI/annexin-V flow cytometry); type: cell-based; conditions: TSA from 5 nM to 250 nM for 6 to 72 hr
Procedure: Two representative DAIs, TSA and NaBu were used for this illustration. […] In some experiments, 100 U/ml γ-IFN was added with and without the deacetylase inhibitor.

MHC class I = assay: Cell surface MHC class I by flow cytometry on SK-N-MC; type: cell-based, human; conditions: 50 nM TSA 48 hours

Compound: IFNγ: gamma-interferon, cytokine used as comparator at 100 U/ml
- CIITA fold increase (CIITA mRNA): 20 fold
- expression of CIITA (CIITA mRNA): induced
- CIITA mRNA activation (CIITA mRNA; J558): failed to activate
- expression of MHC class II protein on the cell surface [1]: did not induce

Compound: CC(/C=C/C(=O)NO)=C\[C@@H](C)C(=O)c1ccc(N(C)C)cc1 [TSA, Trichostatin A]
- expressed markers (CD44, CD54, CD80, CD86, CD119) (J558 cells): not altered
- levels of non-expressed antigens (CD25, B7 integrin, CD40L, H2K^k, IA^k) (J558 cells): not elicited
- toxicity (cell lines employed): non toxic
- CIITA fold increase (CIITA mRNA): absence
- expression of CIITA (CIITA mRNA): not detected
- CIITA fold induction (CIITA mRNA; J558, RT-PCR and real-time PCR (FIGS. 5B and 5D)): 102 fold
- CIITA mRNA activation (CIITA mRNA; J558): induced
- cells positive for class II expression ([1]; TSA concentration used in FIG. 8 (50 nM for 48 hours)): 29%
- expression of MHC class II protein on the cell surface [1]: significantly induced
- MHC class I expression on cell surface (MHC class I): enhanced

From patent publication US6518012B1, “Method for regulating the expression of MHC antigens and CD40 by inhibitors of histone deacetylation” (Health Research, Inc., priority 1999, dated 2003)
